Results as given in US4520022A, “Substituted vinyl cephalosporins” (priority 1983, dated 1985).
Converted amounts (≈) assume the structure as drawn. “And” between values parts separate entries of the source, which are not always exact repeats. Identical values can stand only once. Like-named read-outs stand apart in the source and are kept apart here.

How the values were obtained:
S. aureus Smith = test: Protective dose, mice infected with lethal inoculum, oral treatment, S. aureus Smith; type: in vivo; conditions: for ED50: Staphylococcus aureus, po, 120 h
E. coli Juhl = test: Protective dose, mice infected with lethal inoculum, oral treatment, E. coli Juhl; type: in vivo; conditions: for ED50: Escherichia coli, po, 120 h
S. aureus BX-1633 = test: Protective dose PD50, mice infected with lethal inoculum, oral treatment, S. aureus BX-1633; type: in vivo; conditions: Staphylococcus aureus, BX1633, 120 h
S. pyogenes A20201 = test: Protective dose PD50, mice infected with lethal inoculum, oral treatment, S. pyogenes A20201; type: in vivo; conditions: Streptococcus pyogenes, 120 h
H. influenza A9729 = test: Protective dose PD50, mice infected with lethal inoculum, oral treatment, H. influenza A9729; type: in vivo; conditions: Mus musculus, 120 h
Description: The structure activity correlations drawn from the foregoing in vitro studies are born out by the results of in vivo studies in mice. Table 4 is a tabulation of the protective doses for mice infected with a lethal inoculum of a bacteria. Two different bacteria were employed in the studies, one a Gram+ organism and the other a Gram- organism. The protective dose (PD50) is that dose which when administered to a group of infected mice results in 50% survival after five days. Normally untreated infected mice die within three days following injection of the lethal inoculum.
Protective Dose PD50 for Mice Infected with Lethal Inoculum

P. mirabilis A9554 = test: Protective dose PD50, mice infected with lethal inoculum, oral treatment, P. mirabilis A9554; type: in vivo
S. pyogenes = test: In vitro activity against Streptococci (MIC), S. pyogenes; type: cell-based
S. pneumoniae = test: In vitro activity against Streptococci (MIC), S. pneumoniae; type: cell-based; conditions: Streptococcus pneumoniae
H. influenzae = test: In vitro activity against Haemophilis (MIC), H. influenzae; type: cell-based; conditions: Haemophilus influenzae, Compound 9 lot 2, read-out: MIC
B. fragilis = test: In vitro activity against anaerobes (MIC), B. fragilis; type: cell-based; conditions: Bacteroides fragilis
C. difficile A21675 = test: In vitro activity against anaerobes (MIC), C. difficile; type: cell-based; conditions: Clostridioides difficile; Gp rods; C. difficile A21675; clindamycin resistant; read-out: MIC
C. perfringens A9645 = test: microbe, parasite or virus in culture; type: cell-based; conditions: Clostridium perfringens
Gp, rods; Gp, cocci = test: microbe, parasite or virus in culture; type: cell-based, C. difficile; C. perfringens; P. acnes; P. anaerobius; conditions: read-out: MIC, Geometric Mean
[1] = test system: Gp Ib: S. aureus 193, BX-1633-2 A9606, A15092, Russell, A9602; conditions: Staphylococcus aureus
[2] = test system: Gp Ia: S. aureus Smith A9537, A9497, Terajima, A9534, A9601; conditions: Staphylococcus aureus
[3] = Metabolism in the rat (urine after oral administration); type: in vivo, Wister rats; conditions: oral 100 mg/kg; urine 24 hours
Procedure: Refer to Procedure 43. Compound No. 37 is the 3,4-dihydroxyphenyl compound and Compound No. 42 is the 3-methoxy-4-hydroxyphenyl compound.
Six male Wister rats (400-600 g) were placed in steel metabolic cages after the oral administration of Compound 37 at the dose of 100 mg/kg and urine was collected over a period of 24 hours. The rats were fed their regular diet and given water during the experiment.
The urine (ca. 90 ml) was adjusted to pH 3 with N hydrochloric acid and filtered to remove a precipitate. The filtrate was chromatographed on a column packed with 300 ml of HP-20 by eluting with 2 L of water and 2 L of 30% methanol under monitoring the HPLC. The fractions containing the bioactive components of the 30% methanol eluate were collected, concentrated to 10 ml and lyophilized to give 390 mg of brown solid. A solution of the solid in 20 ml of water was chromatographed on a column packed with 200 ml of the packing of a prepPAK-C18 cartridge (Waters) by eluting with water, 5% methanol, and 10% methanol, successively. The first half of the 5% methanol eluate was concentrated to 5 ml and lyophilized to give 44 mg of Compound 37 (70% pure) containing impurities derived from urine. The second half of the 5% methanol eluate was concentrated to 5 ml and lyophilized to give 36 mg of product, which was a mixture of Compound 37, Compound 42, and impurities derived from urine. […]

bacteria = test: Antibacterial activity, general statements; conditions: in words
[4] = mouse, in vivo, po
in vivo = conditions: mouse; for half-life: T1/2
[5] = oral, value in parentheses: cephalexin in the same run as the compound of that line, 7200 min
[6] = read-out: Minimum Inhibitory Concentration Gp Ib, Mueller-Hinton agar, run 2, average of five organisms
[7] = read-out: Minimum Inhibitory Concentration Gp Ia, Mueller-Hinton agar, run 2, average of five organisms

CC1=C(C(=O)O)N2C(=O)[C@@H](NC(=O)[C@H](N)c3ccccc3)[C@H]2SC1 [Cephalexin]
ED50 (S. aureus Smith; read-out: Protective dose (PD50) of cephalexin in the same run, S. aureus Smith, oral, value in parentheses: cephalexin in the same run as the compound of that line): 0.31 mg/kg | Protective dose (PD50) of cephalexin in the same run, S. aureus Smith (S. aureus Smith; [5]): 0.27 mg/kg and 0.22 mg/kg | ED50 (E. coli Juhl; read-out: Protective dose (PD50) of cephalexin in the same run, E. coli Juhl, oral, value in parentheses: cephalexin in the same run as the compound of that line): 8.4 mg/kg | Protective dose (PD50) of cephalexin in the same run, E. coli Juhl (E. coli Juhl; [5]): 8.2 mg/kg | ED50 (S. aureus BX-1633): 17 mg/kg | ED50 (S. pyogenes A20201): 0.74 mg/kg | ED50 (H. influenza A9729): 18 mg/kg | Protective Dose PD50 (P. mirabilis A9554): 12.5 | MIC (S. pyogenes; S. pyogenes A9604, Compound 9 lot 2): 0.8 µg/mL (≈ 2.3 µM) | MIC (S. pyogenes; S. pyogenes A15040, Compound 9 lot 2): 0.8 µg/mL (≈ 2.3 µM) | MIC (S. pyogenes; S. pyogenes A20065, Compound 9 lot 2): 0.8 µg/mL (≈ 2.3 µM) | MIC (S. pyogenes; S. pyogenes A20201, Compound 9 lot 2): 0.8 µg/mL (≈ 2.3 µM) | MIC (S. pyogenes; S. pyogenes Dick, Compound 9 lot 2): 0.8 µg/mL (≈ 2.3 µM) | MIC (S. pyogenes; Streptococcus pyogenes): 0.8 µg/mL (≈ 2.3 µM) | MIC (S. pyogenes; Streptococcus pyogenes, read-out: MIC, Geometric Mean): 0.8 µg/mL (≈ 2.3 µM) | MIC (S. pneumoniae): 3.1 µg/mL (≈ 8.92 µM) | MIC (S. pneumoniae; S. pneumoniae A9585, Compound 9 lot 2): 3.1 µg/mL (≈ 8.92 µM) | MIC (S. pneumoniae; S. pneumoniae A15069, Compound 9 lot 2): 3.1 µg/mL (≈ 8.92 µM) | MIC (S. pneumoniae; S. pneumoniae A20759, Compound 9 lot 2): 3.1 µg/mL (≈ 8.92 µM) | MIC (S. pneumoniae; S. pneumoniae Type I, Compound 9 lot 2): 3.1 µg/mL (≈ 8.92 µM) | MIC (S. pneumoniae; S. pneumoniae Type III, Compound 9 lot 2): 3.1 µg/mL (≈ 8.92 µM) | MIC (S. pneumoniae; read-out: MIC, Geometric Mean): 3.1 µg/mL (≈ 8.92 µM) | MIC (H. influenzae; H. influenzae A22157): 3.1 µg/mL (≈ 8.92 µM) | MIC (H. influenzae; H. influenzae A22481): 3.1 µg/mL (≈ 8.92 µM) | MIC (H. influenzae; H. influenzae A22491): 3.1 µg/mL (≈ 8.92 µM) | MIC (B. fragilis; B. fragilis A20928-1, A21900, A20935, β-lactamase (-), read-out: MIC, Geometric Mean): 9.9 µg/mL (≈ 28.5 µM) | MIC (B. fragilis; B. fragilis A20928-1, β-lactamase (-)): 12.5 µg/mL (≈ 36 µM) | MIC (B. fragilis; B. fragilis A22021, β-lactamase (+), read-out: MIC): 100 µg/mL (≈ 288 µM) | MIC (B. fragilis; B. fragilis A22053, A22021, A22693, β-lactamase (+), read-out: MIC, Geometric Mean): > 75 µg/mL | MIC (B. fragilis; B. fragilis A22053, β-lactamase (+), read-out: MIC): 25 µg/mL (≈ 72 µM) | MIC (B. fragilis; B. fragilis A22533, β-lactamase (+), read-out: MIC): > 100 µg/mL | MIC (B. fragilis; B. fragilis A22693, β-lactamase (+), read-out: MIC): > 100 µg/mL | MIC (B. fragilis; B. fragilis A22695, A22533, β-lactamase (+), read-out: MIC, Geometric Mean): > 100 µg/mL | MIC (B. fragilis; B. fragilis A22695, β-lactamase (+), read-out: MIC): 100 µg/mL (≈ 288 µM) | MIC (C. difficile A21675): 100 µg/mL (≈ 288 µM) | MIC (C. perfringens A9645): 12.5 µg/mL (≈ 36 µM) | MIC (Gp, rods; Gp, cocci): 11 µg/mL (≈ 31.7 µM) | MIC ([1]; read-out: Minimum Inhibitory Concentration Gp Ib, Mueller-Hinton agar, run 1, average of five organisms): 4.1 µg/mL (≈ 11.8 µM) | MIC [1, 6]: 3.6 µg/mL (≈ 10.4 µM) | MIC ([2]; read-out: Minimum Inhibitory Concentration Gp Ia, Mueller-Hinton agar, run 1, average of five organisms): 1.2 µg/mL (≈ 3.45 µM) | MIC [2, 7]: 0.7 µg/mL (≈ 2.01 µM)

C/C=C\C1=C(C(=O)O)N2C(=O)[C@@H](NC(=O)[C@H](N)c3ccc(O)c(O)c3)[C@H]2SC1 [Compound 37, 7β-[D(-)-2-Amino-2-(3,4-dihydroxyphenyl)acetamido]-3-[(Z)-1-propen-1-yl]-3-cephem-4-carboxylic Acid]
ED50 (S. aureus Smith; oral, 50% survival for 5 days, groups of 5 mice, read-out: Protective dose (PD50), S. aureus Smith): 0.13 mg/kg | ED50 (E. coli Juhl; oral, 50% survival for 5 days, groups of 5 mice, read-out: Protective dose (PD50), E. coli Juhl): 0.44 mg/kg | activity against the Gram- infection (E. coli Juhl; in words): more active against the Gram- infection | metabolism in the rat [3]: metabolized in the rat to Compound No. 42 | antibacterial activity (bacteria): highly active substance against both the Gram+ and Gram- bacteria | blood levels following oral administration [4]: exceptionally high blood levels | AUC (in vivo; im, 20 mg/kg, AUC*): 233 µg·h/mL | Cmax (in vivo; im, 20 mg/kg): 86 µg/mL | half-life (in vivo; im, 20 mg/kg): 1.2 h | AUC (in vivo; po, 20 mg/kg, AUC*): 270 µg·h/mL | Cmax (in vivo; po, 20 mg/kg): 58 µg/mL | half-life (in vivo; po, 20 mg/kg): 5.1 h | AUC (in vivo; po, 100 mg/kg, AUC): 666 µg·h/mL | Cmax (in vivo; po, 100 mg/kg): 180 µg/mL | half-life (in vivo; po, 100 mg/kg): 2.5 h | MIC [1, 6]: 7.2 µg/mL (≈ 17.8 µM) | MIC ([1]; read-out: Minimum inhibitory Concentration Gp Ib, Test Medium Comparison, A: Mueller-Hinton agar, average values): 6.3 µg/mL (≈ 15.5 µM) | MIC ([1]; read-out: Minimum inhibitory Concentration Gp Ib, Test Medium Comparison, B: Nutrient agar, average values): 0.61 µg/mL (≈ 1.5 µM) | MIC [2, 7]: 6.3 µg/mL (≈ 15.5 µM) | MIC ([2]; read-out: Minimum inhibitory Concentration Gp Ia, Test Medium Comparison, A: Mueller-Hinton agar, average values): 4.8 µg/mL (≈ 11.8 µM) | MIC ([2]; read-out: Minimum inhibitory Concentration Gp Ia, Test Medium Comparison, B: Nutrient agar, average values): 0.4 µg/mL (≈ 0.987 µM)
